One assay has as its target T1, RORγ-LBD (Homo sapiens, UniProt P51449).
T1 construct: adding an appropriate amount of biotinylated RORγ-LBD and APC-labeled streptavidin
T1 sequence (P51449 269-508 limits assumed): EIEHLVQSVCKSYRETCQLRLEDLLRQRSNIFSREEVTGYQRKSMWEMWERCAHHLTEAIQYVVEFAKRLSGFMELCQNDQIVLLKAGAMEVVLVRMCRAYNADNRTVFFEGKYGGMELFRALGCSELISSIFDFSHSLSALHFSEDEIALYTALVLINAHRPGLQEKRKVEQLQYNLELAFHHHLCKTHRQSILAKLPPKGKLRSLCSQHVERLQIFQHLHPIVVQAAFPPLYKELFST
As to the kind of experiment: Fluorescence Energy Transfer (FRET) assay. The class given is biochemical. The settings on record: mean of multiple test results if tested more than once; read-out: pIC50 in the FRET assay (converted). As to the method:
The assays were performed in an assay buffer consisting of 50 mM NaF, 50 mM 3-(N-morpholino)propanesulfonic acid, pH 7.5, 50 μM 3-[(3-cholamidopropyl)dimethylammonio]-propanesulfonate, 0.1 mg/mL bovine serum albumin, and 10 mM dithiothreitol in 384-well plates (Greiner 784076, Longwood, Fla.). The total volume was 10 μL/well. The europium-labeled SRC1 solution was prepared by adding an appropriate amount of biotinylated SRC and europium labeled streptavidin (PerkinElmer Life and Analytical Sciences, Waltham, Mass.) into assay buffer, with final concentrations of 27 and 3.3 nM, respectively. The allophycocyanin (APC)-labeled-LBD solution was prepared by adding an appropriate amount of biotinylated RORγ-LBD and APC-labeled streptavidin (CR130-100; PerkinElmer Life and Analytical Sciences) at a final concentration of 33 nM each. After 15 min of incubation at room temperature, a 20-fold excess of biotin was added to block the remaining free streptavidin. […] The plates were incubated for 1 h at room temperature and then read on ViewLux (PerkinElmer Life and Analytical Sciences) in LANCE mode configured for europeum-APC labels. Data were collected and analyzed by Activitybase.

For assay [1], the target named is T2, Human RORγ Ligand Binding Domain (RORγ-LBD) (Homo sapiens, UniProt P51449).
T2 construct: made in house; host or cells: E. coli BL21(DE3)
T2 sequence (P51449 263-518): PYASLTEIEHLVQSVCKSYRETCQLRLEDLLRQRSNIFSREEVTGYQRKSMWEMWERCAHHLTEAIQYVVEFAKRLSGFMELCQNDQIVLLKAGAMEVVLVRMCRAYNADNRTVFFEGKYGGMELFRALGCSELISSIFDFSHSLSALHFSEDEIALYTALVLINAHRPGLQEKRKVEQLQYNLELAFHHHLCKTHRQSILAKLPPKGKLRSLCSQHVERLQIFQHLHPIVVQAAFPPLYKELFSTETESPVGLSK
Briefly: Dual Fluorescence Energy Transfer (FRET) assay. The class given is biochemical. To be noted: mean of multiple test results if tested more than once; read-out: pIC50 in the dual FRET assay (converted). From the text:
This assay is based on the knowledge that nuclear receptors interact with cofactors (transcription factors) in a ligand dependent manner. RORγ is a typical nuclear receptor in that it has an AF2 domain in the ligand binding domain (LBD) which interacts with co-activators. The sites of interaction have been mapped to the LXXLL motifs in the co-activator SRC1(2) sequences. Short peptide sequences containing the LXXLL motif mimic the behavior of full-length co-activator.
The assay measures ligand-mediated interaction of the co-activator peptide with the purified bacterial-expressed RORγ ligand binding domain (RORγ-LBD) to indirectly assess ligand binding. RORγ has a basal level of interaction with the co-activator SRC1(2) in the absence of ligand, thus it is possible to find ligands that inhibit or enhance the RORγ/SRC1(2) interaction.
Human RORγ Ligand Binding Domain (RORγ-LBD) was expressed in E. coli strain BL21(DE3) as an amino-terminal polyhistidine tagged fusion protein. DNA encoding this recombinant protein was sub-cloned into a modified pET21a expression vector (Novagen). […]
Approximately 50 g E. coli cell pellet was resuspended in 300 mL of lysis buffer (30 mM imidazole pH 7.0 and 150 mM NaCl). […] After washing to baseline absorbance with the equilibration buffer, the column was developed with a gradient from 30 to 500 mM imidazole pH 7.0. […]

With `Cc1ncc(C(=O)Nc2cc(Cl)cc(CN3CCN(C(=O)CC4CC4)[C@@H](C)C3)c2C)cc1F` [Example 80, (S)—N-(5-chloro-3-((4-(2-cyclopropylacetyl)-3-methylpiperazin-1-yl)methyl)-2-methylphenyl)-5-fluoro-6-methylnicotinamide], the IC50 was roughly 50.1 nM at RORγ-LBD and roughly 100 nM in assay [1].

The record behind these values is patent publication US9902735B2, “Heteroaryl substituted compounds as RORγ inhibitors” (GlaxoSmithKline Intellectual Property Developement Limited, priority 2014, dated 2018).
